Values of other authors, collected in patent US9955683B2, “Insecticidal apparatus and methods” (priority 2012, dated 2018).

Experiments:
[1] = tested on: blowfly larvae; details: sheep
[2] = ruminants; excretion mainly via the feces

## O=C(NC(=O)c1c(F)cccc1F)Nc1ccc(Cl)cc1 [Diflubenzuron]
[1]; emulsifiable concentrate used as a dip or shower, preventive use
  duration of protection against blowfly strike: 12-14 wk

## Nc1nc(N)nc(NC2CC2)n1 [cyromazine]
[1]; after a single pour-on application
  duration for which control of blowfly larvae can be maintained: up to 13 wk

## N#Cc1c(N)nc(NC2CC2)nc1N [Dicyclanil]
[1]; pour-on formulation
  duration of protection, blowfly control: up to 20 wk

## Ivermectin
[2]
  fraction of unaltered molecule excreted in the urine: < 2%
